# How the values were obtained:
# [1] = molecular target: T1, ALDH1A1 (Homo sapiens, UniProt P00352); test: ALDH1A1 inhibition, propionaldehyde as substrate; assay type: biochemical; details: up to 250 μM
# T1 sequence (P00352 1-501): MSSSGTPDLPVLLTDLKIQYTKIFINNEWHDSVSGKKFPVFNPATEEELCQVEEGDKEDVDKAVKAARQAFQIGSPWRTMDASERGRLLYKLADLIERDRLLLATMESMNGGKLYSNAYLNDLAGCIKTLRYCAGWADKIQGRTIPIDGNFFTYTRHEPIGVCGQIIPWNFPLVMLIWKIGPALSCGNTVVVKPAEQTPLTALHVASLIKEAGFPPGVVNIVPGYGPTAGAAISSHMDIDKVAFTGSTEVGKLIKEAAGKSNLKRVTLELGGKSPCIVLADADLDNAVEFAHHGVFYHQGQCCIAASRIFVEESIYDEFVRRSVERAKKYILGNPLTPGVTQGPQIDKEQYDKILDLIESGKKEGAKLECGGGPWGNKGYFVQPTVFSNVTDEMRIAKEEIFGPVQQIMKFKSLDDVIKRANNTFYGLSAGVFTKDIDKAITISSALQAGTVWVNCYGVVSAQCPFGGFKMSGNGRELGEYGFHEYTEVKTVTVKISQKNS
# [2] = molecular target: T2, ALDH1A2 (Homo sapiens, UniProt O94788); test: ALDH1A2 activity assay, propionaldehyde/NAD+; assay type: biochemical; details: up to 250 μM
# T2 sequence (O94788 1-518): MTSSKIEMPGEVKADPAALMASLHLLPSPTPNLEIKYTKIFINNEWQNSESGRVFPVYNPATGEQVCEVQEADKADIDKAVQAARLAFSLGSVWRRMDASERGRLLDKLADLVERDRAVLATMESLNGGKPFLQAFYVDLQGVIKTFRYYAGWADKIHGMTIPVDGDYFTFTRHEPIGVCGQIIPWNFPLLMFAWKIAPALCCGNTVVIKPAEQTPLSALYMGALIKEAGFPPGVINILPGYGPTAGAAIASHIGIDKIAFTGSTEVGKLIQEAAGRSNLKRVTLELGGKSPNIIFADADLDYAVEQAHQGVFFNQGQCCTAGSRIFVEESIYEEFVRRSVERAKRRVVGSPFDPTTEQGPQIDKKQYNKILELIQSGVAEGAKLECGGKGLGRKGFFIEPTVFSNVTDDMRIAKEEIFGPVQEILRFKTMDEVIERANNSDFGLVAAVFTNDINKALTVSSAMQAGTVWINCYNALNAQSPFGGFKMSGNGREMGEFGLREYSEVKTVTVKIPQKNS
# [3] = molecular target: T3, ALDH1A3 (Homo sapiens, UniProt P47895); test: ALDH1A3 activity assay, propionaldehyde/NAD+; assay type: biochemical; details: up to 250 μM
# T3 sequence (P47895 1-512): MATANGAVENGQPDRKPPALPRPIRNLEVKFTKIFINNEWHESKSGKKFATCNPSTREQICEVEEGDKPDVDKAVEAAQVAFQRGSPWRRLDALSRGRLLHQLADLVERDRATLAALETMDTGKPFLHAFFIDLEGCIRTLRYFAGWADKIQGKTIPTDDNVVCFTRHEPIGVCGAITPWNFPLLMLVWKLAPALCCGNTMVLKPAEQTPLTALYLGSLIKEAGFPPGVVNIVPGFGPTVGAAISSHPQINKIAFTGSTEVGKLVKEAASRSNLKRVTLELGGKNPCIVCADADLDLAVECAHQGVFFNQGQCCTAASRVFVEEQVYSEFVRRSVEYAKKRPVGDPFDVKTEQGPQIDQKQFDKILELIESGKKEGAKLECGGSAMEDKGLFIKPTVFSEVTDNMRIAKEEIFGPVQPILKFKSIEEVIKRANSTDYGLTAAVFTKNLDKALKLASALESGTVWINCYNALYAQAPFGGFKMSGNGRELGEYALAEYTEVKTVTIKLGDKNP
# [4] = molecular target: T4, ALDH1B1 (Homo sapiens, UniProt P30837); test: ALDH1B1 activity assay, propionaldehyde/NAD+; assay type: biochemical; details: up to 250 μM
# T4 sequence (P30837 18-517): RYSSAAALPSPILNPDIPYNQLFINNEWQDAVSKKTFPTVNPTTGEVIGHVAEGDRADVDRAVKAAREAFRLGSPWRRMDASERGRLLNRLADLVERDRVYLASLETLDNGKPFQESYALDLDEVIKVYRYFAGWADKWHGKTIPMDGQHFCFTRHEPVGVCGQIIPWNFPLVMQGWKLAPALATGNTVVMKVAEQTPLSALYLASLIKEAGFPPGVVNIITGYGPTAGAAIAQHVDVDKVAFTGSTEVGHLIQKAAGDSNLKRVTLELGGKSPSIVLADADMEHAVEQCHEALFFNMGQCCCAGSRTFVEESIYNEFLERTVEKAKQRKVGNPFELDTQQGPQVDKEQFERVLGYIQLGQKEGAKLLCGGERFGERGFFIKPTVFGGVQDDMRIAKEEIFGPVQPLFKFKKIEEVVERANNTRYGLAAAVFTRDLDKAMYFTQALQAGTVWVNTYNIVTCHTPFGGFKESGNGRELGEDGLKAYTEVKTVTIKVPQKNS
# [5] = molecular target: T5, ALDH2 (Homo sapiens, UniProt P05091); test: ALDH2 inhibition, propionaldehyde as substrate; assay type: biochemical; details: up to 250 μM
# T5 sequence (P05091 18-517): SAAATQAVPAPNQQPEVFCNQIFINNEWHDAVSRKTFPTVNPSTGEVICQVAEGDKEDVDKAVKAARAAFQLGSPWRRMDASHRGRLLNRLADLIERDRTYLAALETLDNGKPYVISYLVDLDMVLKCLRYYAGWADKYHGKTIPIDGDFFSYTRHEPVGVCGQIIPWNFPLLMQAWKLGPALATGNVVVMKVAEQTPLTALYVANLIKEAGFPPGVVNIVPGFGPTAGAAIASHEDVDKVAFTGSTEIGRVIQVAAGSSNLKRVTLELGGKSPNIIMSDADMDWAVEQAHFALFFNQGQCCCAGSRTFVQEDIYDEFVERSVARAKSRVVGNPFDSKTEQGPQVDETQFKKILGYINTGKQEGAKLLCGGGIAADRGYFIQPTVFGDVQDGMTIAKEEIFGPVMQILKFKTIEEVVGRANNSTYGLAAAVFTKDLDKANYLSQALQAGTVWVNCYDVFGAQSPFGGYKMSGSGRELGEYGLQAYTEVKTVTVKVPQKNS
# [6] = molecular target: T6, ALDH3A1 (Homo sapiens, UniProt P30838); test: Steady-state kinetics, mode of inhibition of ALDH3A1; assay type: biochemical
# T6 sequence (P30838 1-453): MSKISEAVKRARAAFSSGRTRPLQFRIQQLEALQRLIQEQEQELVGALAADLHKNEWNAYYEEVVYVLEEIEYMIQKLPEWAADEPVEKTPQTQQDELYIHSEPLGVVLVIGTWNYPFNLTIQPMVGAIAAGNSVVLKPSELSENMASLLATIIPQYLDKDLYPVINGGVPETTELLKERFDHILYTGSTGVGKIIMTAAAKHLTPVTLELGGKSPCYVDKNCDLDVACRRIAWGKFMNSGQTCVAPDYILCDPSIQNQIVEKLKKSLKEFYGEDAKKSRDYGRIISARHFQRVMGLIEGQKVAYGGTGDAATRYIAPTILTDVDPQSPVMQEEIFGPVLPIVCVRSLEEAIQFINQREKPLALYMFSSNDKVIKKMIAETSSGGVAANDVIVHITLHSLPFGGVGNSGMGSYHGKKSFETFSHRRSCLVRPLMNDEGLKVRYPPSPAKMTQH
# [7] = molecular target: T7, ALDH3A1 activity in A549 cell lysates (Homo sapiens, UniProt P30838); test: Cell lysate ALDH3A1 activity in presence and absence of CB29, A549; assay type: biochemical; details: 50 μM CB29, […] NADP+, 1 mM benzaldehyde
# T7 sequence (P30838 1-453): T6 sequence (P30838 1-453)
# [8] = molecular target: T8, ALDH3A1 activity in SF767 cell lysates (Homo sapiens, UniProt P30838); test: Cell lysate ALDH3A1 activity in presence and absence of CB29, SF767; assay type: biochemical; details: 50 μM CB29, […] NADP+, 1 mM benzaldehyde
# T8 sequence (P30838 1-453): T6 sequence (P30838 1-453)
# [9] = molecular target: T6, ALDH3A1; test: Recombinant ALDH3A1 activity in presence and absence of CB29; assay type: biochemical; details: 50 μM CB29, […] NADP+, 1 mM benzaldehyde
# [10] = Formation of homogeneous solution; assay type: physicochemical; details: in the presence of […] DMSO
# [11] = test system: A549 cells; details: 50 μM inhibitor alone, 19 hours, MTT, Figure 4A grey bars
# [12] = test system: SF767 cells
# [13] = test system: CCD-13Lu cells; test: Colorimetric MTT assay for mafosfamide sensitivity, CCD-13Lu; details: 19 hours, Figure 4C
smiles,measurement,setting,value
"CC(=O)Nc1ccc(Nc2ccc(S(C)(=O)=O)cc2[N+](=O)[O-])cc1 [CB29, N-[4-{(4-(methylsulfonyl)-2-nitrophenyl)-4-amino}-phenyl]-acetamide]",inhibition toward ALDH1A1,[1],< 5%
same,inhibition toward ALDH1A2,[2],< 5%
same,inhibition toward ALDH1A3,[3],< 5%
same,inhibition toward ALDH1B1,[4],< 5%
same,inhibition toward ALDH2,[5],< 5%
same,Ki,"[6]; competitive versus varied benzaldehyde, fixed NADP+ […], 10 nM ALDH3A1",4 µM
same,mode of inhibition,[6]; with respect to benzaldehyde,competitive
same,decrease of ALDH3A1 activity in A549 cell lysate,[7],> 95%
same,decrease of ALDH3A1 activity in SF767 cell lysate,[8],> 90%
same,decrease of activity of recombinant ALDH3A1,[9],~ 97%
same,homogeneous solution formed,[10],≥ 100 µM
same,"effect on cell proliferation as single agent, A549 (in words)",[11],little effect
same,"increase in mafosfamide chemosensitivity, SF767","[12]; 50 μM inhibitor + […] mafosfamide, 19 hours, MTT, p<0.005",~2 fold
same,"effect on cell proliferation as single agent, SF767 (in words)","[12]; 50 μM inhibitor alone, 19 hours, MTT, Figure 4B grey bars",little effect
same,"decrease of ED50 value of mafosfamide in the presence of inhibitor, SF767","[12]; inhibitor 50 μM, Figure 5B",1.6 fold
same,"ED50 of mafosfamide in the presence of inhibitor, SF767","[12]; inhibitor 50 μM, mafosfamide 0-250 μM, MTT, Figure 5B",92 ± 4 µM
same,"enhancement of mafosfamide sensitivity, CCD-13Lu (in words)",[13]; 50 μM inhibitor + 40 μM mafosfamide,did not show mafosfamide chemosensitivity
same,"cytotoxicity / proliferation with inhibitor alone, CCD-13Lu (in words)",[13]; 50 μM inhibitor,unaffected

# Reference: article PMC4043872 (Chembiochem : a European journal of chemical biology, 2014)
